Results: article PMC5218480 (PLoS ONE, 2017)

Tested on: MV-4-11 cells
Experiment: Gene expression microarray analysis (Affymetrix PrimeView) and GSEA
Format: cell-based, human
Parameters: RFU PODN (11730768_x_at) / Fold change /veh PODN (11730768_x_at) / RFU LINC00158 (11744669_a_at) / Fold change /veh LINC00158 (11744669_a_at) / RFU DUSP10 (11751237_a_at) / Fold change /veh DUSP10 (11751237_a_at) / RFU ID3 (11757404_x_at) / Fold change /veh ID3 (11757404_x_at) / RFU PLEKHG5 (11737974_s_at) / Fold change /veh PLEKHG5 (11737974_s_at) / RFU LRRC4B (11730491_at) / Fold change /veh LRRC4B (11730491_at) / RFU GIMAP4 (11747438_a_at) / Fold change /veh GIMAP4 (11747438_a_at) / RFU KRT8 (11758183_x_at) / Fold change /veh KRT8 (11758183_x_at) / RFU CNN1 (11734310_a_at) / Fold change /veh CNN1 (11734310_a_at) / RFU VPS37D (11726825_at) / Fold change /veh VPS37D (11726825_at) / RFU C10orf10 (11716522_x_at) / Fold change /veh C10orf10 (11716522_x_at) / RFU KIR2DL2 /// KIR2DL4 /// KIR2DL5A /// KIR2DL5B /// KIR2DS1 /// KIR2DS2 /// KIR2DS3 /// KIR2DS4 /// KIR3DL3 /// KIR3DL3 /// KIR3DS1 (11738374_at) / Fold change /veh KIR2DL2 /// KIR2DL4 /// KIR2DL5A /// KIR2DL5B /// KIR2DS1 /// KIR2DS2 /// KIR2DS3 /// KIR2DS4 /// KIR3DL3 /// KIR3DL3 /// KIR3DS1 (11738374_at) / RFU C1QL1 (11718748_at) / Fold change /veh C1QL1 (11718748_at) / RFU TMPRSS4 (11747572_a_at) / Fold change /veh TMPRSS4 (11747572_a_at) / RFU HAMP (11756126_x_at) / Fold change /veh HAMP (11756126_x_at) / RFU RNFT2 (11725882_a_at) / Fold change /veh RNFT2 (11725882_a_at) / RFU NR4A2 (11747474_a_at) / Fold change /veh NR4A2 (11747474_a_at) / RFU ABCC12 (11746883_a_at) / Fold change /veh ABCC12 (11746883_a_at) / RFU TMEM136 (11760407_x_at) / Fold change /veh TMEM136 (11760407_x_at) / RFU CLDN22 /// WWC2 (11732394_at) / Fold change /veh CLDN22 /// WWC2 (11732394_at) / RFU HLA-DPB1 (11760878_x_at) / Fold change /veh HLA-DPB1 (11760878_x_at) / RFU SPINT1 (11716480_a_at) / Fold change /veh SPINT1 (11716480_a_at) / RFU GAP43 (11754022_s_at) / Fold change /veh GAP43 (11754022_s_at) / RFU A4GNT (11735810_at) / Fold change /veh A4GNT (11735810_at) / RFU PRB3 (11715151_x_at) / Fold change /veh PRB3 (11715151_x_at) / RFU TUBB4B (11761932_at) / Fold change /veh TUBB4B (11761932_at) / RFU CAPN14 (11732068_a_at) / Fold change /veh CAPN14 (11732068_a_at) / RFU TMCC2 (11721928_a_at) / Fold change /veh TMCC2 (11721928_a_at) / RFU IRGQ (11745062_a_at) / Fold change /veh IRGQ (11745062_a_at) / RFU FAM174B (11720279_a_at) / Fold change /veh FAM174B (11720279_a_at) / RFU TMPRSS4 (11748680_a_at) / Fold change /veh TMPRSS4 (11748680_a_at) / RFU FAM212B (11763350_a_at) / Fold change /veh FAM212B (11763350_a_at) / RFU PLEKHG5 (11743358_a_at) / Fold change /veh PLEKHG5 (11743358_a_at) / RFU ZSCAN30 (11745921_a_at) / Fold change /veh ZSCAN30 (11745921_a_at) / RFU CMKLR1 (11741424_a_at) / Fold change /veh CMKLR1 (11741424_a_at) / RFU LOC101060620 /// MAPK8IP1 (11723275_at) / Fold change /veh LOC101060620 /// MAPK8IP1 (11723275_at) / RFU SPTSSB (11747773_x_at) / Fold change /veh SPTSSB (11747773_x_at) / RFU PRSS12 (11739890_at) / Fold change /veh PRSS12 (11739890_at) / RFU BIN1 (11741810_x_at) / Fold change /veh BIN1 (11741810_x_at) / RFU WNT11 (11732464_a_at) / Fold change /veh WNT11 (11732464_a_at) / RFU C10orf10 (11716521_a_at) / Fold change /veh C10orf10 (11716521_a_at) / RFU C5orf56 (11738089_at) / Fold change /veh C5orf56 (11738089_at) / RFU CYB561 (11721691_x_at) / Fold change /veh CYB561 (11721691_x_at) / RFU ANKRD19P (11752326_a_at) / Fold change /veh ANKRD19P (11752326_a_at) / RFU OR2T12 /// OR2T33 /// OR2T8 (11738714_s_at) / Fold change /veh OR2T12 /// OR2T33 /// OR2T8 (11738714_s_at) / RFU VCAN (11748164_a_at) / Fold change /veh VCAN (11748164_a_at) / RFU JSRP1 (11732532_at) / Fold change /veh JSRP1 (11732532_at) / RFU KRTAP10-11 (11738290_x_at) / Fold change /veh KRTAP10-11 (11738290_x_at) / RFU MYO3A (11730013_a_at) / Fold change /veh MYO3A (11730013_a_at) / RFU EBF3 (11725865_a_at) / Fold change /veh EBF3 (11725865_a_at) / RFU CAMK2N1 (11719241_x_at) / Fold change /veh CAMK2N1 (11719241_x_at) / RFU C5orf56 (11738088_a_at) / Fold change /veh C5orf56 (11738088_a_at) / RFU OLFML3 (11715873_a_at) / Fold change /veh OLFML3 (11715873_a_at) / RFU LOC100653217 /// NTM (11731650_a_at) / Fold change /veh LOC100653217 /// NTM (11731650_a_at) / RFU MAPK11 (11762145_a_at) / Fold change /veh MAPK11 (11762145_a_at) / RFU FIZ1 (11724087_x_at) / Fold change /veh FIZ1 (11724087_x_at) / RFU OASL (11726364_x_at) / Fold change /veh OASL (11726364_x_at) / RFU SOX15 (11748057_x_at) / Fold change /veh SOX15 (11748057_x_at) / RFU CD79A (11719716_a_at) / Fold change /veh CD79A (11719716_a_at) / RFU HIST1H1D (11736915_at) / Fold change /veh HIST1H1D (11736915_at) / RFU CASKIN2 (11723855_a_at) / Fold change /veh CASKIN2 (11723855_a_at) / RFU LOC730098 (11760151_x_at) / Fold change /veh LOC730098 (11760151_x_at) / RFU OR4N2 (11742367_at) / Fold change /veh OR4N2 (11742367_at) / RFU PRRT2 (11749266_a_at) / Fold change /veh PRRT2 (11749266_a_at) / RFU SNX32 (11753110_a_at) / Fold change /veh SNX32 (11753110_a_at) / RFU CDHR5 (11726645_a_at) / Fold change /veh CDHR5 (11726645_a_at) / RFU RCAN1 (11760418_a_at) / Fold change /veh RCAN1 (11760418_a_at) / RFU FAM167A (11723789_a_at) / Fold change /veh FAM167A (11723789_a_at) / RFU FAM26E (11764081_at) / Fold change /veh FAM26E (11764081_at) / RFU ISYNA1 (11749810_s_at) / Fold change /veh ISYNA1 (11749810_s_at) / RFU ACY1 (11761880_at) / Fold change /veh ACY1 (11761880_at) / RFU 11764098_at / Fold change /veh 11764098_at / RFU SAMD14 (11745864_x_at) / Fold change /veh SAMD14 (11745864_x_at) / RFU NPB (11741838_a_at) / Fold change /veh NPB (11741838_a_at) / RFU TMPRSS6 (11731388_a_at) / Fold change /veh TMPRSS6 (11731388_a_at) / RFU KRTAP10-2 (11738614_at) / Fold change /veh KRTAP10-2 (11738614_at) / RFU ARHGAP8 /// PRR5-ARHGAP8 (11727945_x_at) / Fold change /veh ARHGAP8 /// PRR5-ARHGAP8 (11727945_x_at) / RFU KRTAP5-7 /// NADSYN1 (11734609_at) / Fold change /veh KRTAP5-7 /// NADSYN1 (11734609_at) / RFU RASL12 (11751679_a_at) / Fold change /veh RASL12 (11751679_a_at) / RFU CDKN2B (11736163_a_at) / Fold change /veh CDKN2B (11736163_a_at) / RFU PRF1 (11729649_at) / Fold change /veh PRF1 (11729649_at) / RFU, ZNF638 /// ZNF638-IT1 / Fold change vs veh, ZNF638 /// ZNF638-IT1 / RFU, PANK3 / Fold change vs veh, PANK3 / RFU, SH3YL1 / Fold change vs veh, SH3YL1 / RFU, ZEB2 / Fold change vs veh, ZEB2 / RFU, NRIP1 / Fold change vs veh, NRIP1 / RFU, PTTG1IP / Fold change vs veh, PTTG1IP / RFU, CAPN2 / Fold change vs veh, CAPN2 / RFU, MED14 / Fold change vs veh, MED14 / RFU, SNORA58 / Fold change vs veh, SNORA58 / RFU, C1orf63 / Fold change vs veh, C1orf63 / RFU, LRRFIP1 / Fold change vs veh, LRRFIP1 / RFU, NDUFAF7 / Fold change vs veh, NDUFAF7 / RFU, SLC12A2 / Fold change vs veh, SLC12A2 / RFU, IBTK / Fold change vs veh, IBTK / RFU, ESF1 / Fold change vs veh, ESF1 / Fold change vs veh, TMEM50B / RFU, TAOK1 / Fold change vs veh, TAOK1 / RFU, ACBD3 / Fold change vs veh, ACBD3 / RFU, TMA16 / Fold change vs veh, TMA16 / RFU, RWDD3 / Fold change vs veh, RWDD3 / RFU, BCAT1 / Fold change vs veh, BCAT1 / RFU, EDEM3 / Fold change vs veh, EDEM3 / RFU, TMEM33 / Fold change vs veh, TMEM33 / RFU, WDR75 / Fold change vs veh, WDR75 / RFU, AHCTF1 / Fold change vs veh, AHCTF1 / RFU, TFRC / Fold change vs veh, TFRC / RFU, ZDHHC17 / Fold change vs veh, ZDHHC17 / RFU, NOM1 / Fold change vs veh, NOM1 / RFU, ARL8B / Fold change vs veh, ARL8B / RFU, ZBTB11 / Fold change vs veh, ZBTB11 / RFU, TAMM41 / Fold change vs veh, TAMM41 / RFU, KIAA1704 /// LOC100996395 / Fold change vs veh, KIAA1704 /// LOC100996395 / RFU, ING1 / Fold change vs veh, ING1 / RFU, TRMT61B / Fold change vs veh, TRMT61B / RFU, FUBP3 / Fold change vs veh, FUBP3 / RFU, TP53 / Fold change vs veh, TP53 / RFU, TNKS2 / Fold change vs veh, TNKS2 / RFU, ZFP14 / Fold change vs veh, ZFP14 / RFU, ACTR2 / Fold change vs veh, ACTR2 / RFU, PPP3R1 / Fold change vs veh, PPP3R1 / RFU, PIK3R1 / Fold change vs veh, PIK3R1 / RFU, HNRNPA1 / Fold change vs veh, HNRNPA1 / RFU, RNF170 / Fold change vs veh, RNF170 / RFU, ZNF28 / Fold change vs veh, ZNF28 / RFU, RNGTT / Fold change vs veh, RNGTT / RFU, OGT / Fold change vs veh, OGT / RFU, BRD1 / Fold change vs veh, BRD1 / RFU, MARS / Fold change vs veh, MARS / RFU, ZNF655 / Fold change vs veh, ZNF655 / RFU, FAHD1 / Fold change vs veh, FAHD1 / RFU, BDP1 / Fold change vs veh, BDP1 / RFU, LRRCC1 / Fold change vs veh, LRRCC1 / RFU, ARID1A / Fold change vs veh, ARID1A / RFU, ZNF146 / Fold change vs veh, ZNF146 / RFU, ZNF330 / Fold change vs veh, ZNF330 / RFU, GPN3 / Fold change vs veh, GPN3 / RFU, C9orf123 / Fold change vs veh, C9orf123 / RFU, N4BP2L2 / Fold change vs veh, N4BP2L2 / RFU, ARFIP1 / Fold change vs veh, ARFIP1 / RFU, FAM179B / Fold change vs veh, FAM179B / RFU, BCL10 / Fold change vs veh, BCL10 / RFU, UHRF1BP1L / Fold change vs veh, UHRF1BP1L / RFU, BET1 / Fold change vs veh, BET1 / RFU, CNOT2 / Fold change vs veh, CNOT2 / RFU, ZNF268 / Fold change vs veh, ZNF268 / Fold change vs veh, ZNF507 / RFU, DGCR2 / Fold change vs veh, DGCR2 / RFU, WDSUB1 / Fold change vs veh, WDSUB1 / Fold change vs veh, HSP90B1 /// MIR3652 / RFU, ADSS / Fold change vs veh, ADSS / RFU, GK / Fold change vs veh, GK / RFU, ZNF148 / Fold change vs veh, ZNF148 / RFU, TAF9 / Fold change vs veh, TAF9 / RFU, SLC1A5 / Fold change vs veh, SLC1A5 / RFU, SLMO2 / Fold change vs veh, SLMO2 / RFU, ABCC4 / Fold change vs veh, ABCC4 / RFU, LOC101060439 /// RAP1B / Fold change vs veh, LOC101060439 /// RAP1B / RFU, RFX7 / Fold change vs veh, RFX7 / RFU, GTPBP10 / Fold change vs veh, GTPBP10 / RFU, CNEP1R1 / Fold change vs veh, CNEP1R1 / RFU, BIVM-ERCC5 /// ERCC5 / Fold change vs veh, BIVM-ERCC5 /// ERCC5 / RFU, ILF3 / Fold change vs veh, ILF3 / RFU 11762660_at / Fold change /veh 11762660_at / RFU VCAN (11757783_s_at) / Fold change /veh VCAN (11757783_s_at) / RFU DDX43 (11728927_at) / Fold change /veh DDX43 (11728927_at) / RFU KRT8 (11758188_x_at) / Fold change /veh KRT8 (11758188_x_at) / RFU NKD1 (11759106_at) / Fold change /veh NKD1 (11759106_at) / RFU SRD5A1 (11742802_a_at) / Fold change /veh SRD5A1 (11742802_a_at) / RFU TPSAB1 /// TPSB2 (11721975_s_at) / Fold change /veh TPSAB1 /// TPSB2 (11721975_s_at) / RFU GSTM3 (11746129_a_at) / Fold change /veh GSTM3 (11746129_a_at) / RFU IL23R (11737362_x_at) / Fold change /veh IL23R (11737362_x_at) / RFU TMEM51 (11727254_a_at) / Fold change /veh TMEM51 (11727254_a_at) / RFU PIWIL2 (11732686_x_at) / Fold change /veh PIWIL2 (11732686_x_at) / RFU ORM1 (11744905_x_at) / Fold change /veh ORM1 (11744905_x_at) / RFU CCDC152 (11743942_at) / Fold change /veh CCDC152 (11743942_at) / RFU ECM1 (11717891_a_at) / Fold change /veh ECM1 (11717891_a_at) / RFU IL23R (11748794_a_at) / Fold change /veh IL23R (11748794_a_at) / RFU TNFAIP8L3 (11732012_x_at) / Fold change /veh TNFAIP8L3 (11732012_x_at) / RFU MBOAT4 (11741988_at) / Fold change /veh MBOAT4 (11741988_at) / RFU 11764193_at / Fold change /veh 11764193_at / RFU TMEM53 (11763286_at) / Fold change /veh TMEM53 (11763286_at) / RFU MAGEB2 (11727129_at) / Fold change /veh MAGEB2 (11727129_at) / RFU TMEM200A (11744735_a_at) / Fold change /veh TMEM200A (11744735_a_at) / RFU CCDC152 (11751479_a_at) / Fold change /veh CCDC152 (11751479_a_at) / RFU FAM211A (11726209_a_at) / Fold change /veh FAM211A (11726209_a_at) / RFU RGS16 (11746705_a_at) / Fold change /veh RGS16 (11746705_a_at) / RFU VCAN (11755009_s_at) / Fold change /veh VCAN (11755009_s_at) / RFU RHOB (11743442_s_at) / Fold change /veh RHOB (11743442_s_at) / RFU RGS16 (11720943_a_at) / Fold change /veh RGS16 (11720943_a_at) / RFU RGS16 (11720944_at) / Fold change /veh RGS16 (11720944_at) / RFU, VPS4B / Fold change vs veh, VPS4B / RFU, CREB1 / Fold change vs veh, CREB1 / RFU, DNAJC13 / Fold change vs veh, DNAJC13 / RFU, GNAQ / Fold change vs veh, GNAQ / RFU, CDK5R1 / Fold change vs veh, CDK5R1 / RFU, ZRANB3 / Fold change vs veh, ZRANB3 / RFU, CUL4A / Fold change vs veh, CUL4A / RFU, CCNY / Fold change vs veh, CCNY / RFU, UFL1 / Fold change vs veh, UFL1 / RFU, COG3 / Fold change vs veh, COG3 / RFU, DIAPH2 / Fold change vs veh, DIAPH2 / RFU, SKA2 / Fold change vs veh, SKA2 / RFU, AFF3 / Fold change vs veh, AFF3 / RFU, LMF1 / Fold change vs veh, LMF1 / RFU, IPO11 / Fold change vs veh, IPO11 / RFU, DFFB / Fold change vs veh, DFFB / RFU, FOXP1 / Fold change vs veh, FOXP1 / RFU, CARD8 / Fold change vs veh, CARD8 / RFU, STRN3 / Fold change vs veh, STRN3 / RFU, ADK / Fold change vs veh, ADK / RFU, RASSF2 / Fold change vs veh, RASSF2 / RFU, WIPF1 / Fold change vs veh, WIPF1 / RFU, LARP1B / Fold change vs veh, LARP1B / RFU, RASA1 / Fold change vs veh, RASA1 / RFU, RB1 / Fold change vs veh, RB1 / RFU, PPFIA1 / Fold change vs veh, PPFIA1 / RFU, MAT2A / Fold change vs veh, MAT2A / RFU, CCT5 / Fold change vs veh, CCT5 / RFU, WDR92 / Fold change vs veh, WDR92 / RFU, CUX1 / Fold change vs veh, CUX1 / RFU, TTC7A / Fold change vs veh, TTC7A / RFU, TMEM135 / Fold change vs veh, TMEM135 / RFU, DEPTOR / Fold change vs veh, DEPTOR / RFU, CPM / Fold change vs veh, CPM / RFU, DNAJB6 / Fold change vs veh, DNAJB6 / RFU, CACNA2D3 / Fold change vs veh, CACNA2D3 / RFU, DTX4 / Fold change vs veh, DTX4 / RFU, TFCP2 / Fold change vs veh, TFCP2 / RFU, GMCL1 /// GMCL1P1 / Fold change vs veh, GMCL1 /// GMCL1P1 / RFU, AEBP2 / Fold change vs veh, AEBP2 / RFU, SNHG1 /// SNORD22 /// SNORD25 /// SNORD26 /// SNORD27 /// SNORD28 /// SNORD29 /// SNORD31 / Fold change vs veh, SNHG1 /// SNORD22 /// SNORD25 /// SNORD26 /// SNORD27 /// SNORD28 /// SNORD29 /// SNORD31 / Fold change (Aza/veh), C12orf56 (ProbeSet 11735607_a_at) / Fold change (ACY-1035/veh), C12orf56 (ProbeSet 11735607_a_at) / Fold change (Aza/veh), FGFR1OP (ProbeSet 11751329_s_at) / Fold change (ACY-1035/veh), FGFR1OP (ProbeSet 11751329_s_at) / Fold change (Aza/veh), VPS36 (ProbeSet 11739960_a_at) / Fold change (ACY-1035/veh), VPS36 (ProbeSet 11739960_a_at) / RFU SYPL1 (11715823_x_at) / Fold change /veh SYPL1 (11715823_x_at) / RFU IGFBP7 (11715501_s_at) / Fold change /veh IGFBP7 (11715501_s_at) / RFU REEP3 (11722064_at) / Fold change /veh REEP3 (11722064_at) / RFU IGLL1 (11728026_x_at) / Fold change /veh IGLL1 (11728026_x_at): dose or concentration left out as unconfirmed
Conditions: ProbeSet 11730501_a_at; LIST D

Nc1ncn([C@@H]2O[C@H](CO)[C@@H](O)[C@H]2O)c(=O)n1 [azacitidine]
RFU, CACNA2D3: 122.12 RFU
